The values below come from patent US12110288B2, “MASP-2 inhibitors and methods of use” (Omeros Corporation, priority 2019, dated 2024).

Structures can show the parent of a compound that is named as a salt.

A word on the Ki: it is a dissociation constant, usually derived from enzyme kinetics or from competition with a known ligand. A lower Ki goes with a stronger hold on the target.

T1 sequence (O00187 445-686 limits assumed): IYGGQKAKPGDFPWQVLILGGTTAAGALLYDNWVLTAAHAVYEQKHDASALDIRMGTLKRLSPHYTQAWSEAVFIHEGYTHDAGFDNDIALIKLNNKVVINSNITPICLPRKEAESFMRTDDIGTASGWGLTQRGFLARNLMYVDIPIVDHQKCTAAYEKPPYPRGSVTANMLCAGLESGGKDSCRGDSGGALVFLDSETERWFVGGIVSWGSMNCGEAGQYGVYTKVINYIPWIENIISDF
T1 sequence (O00187 298-444 partner limits assumed): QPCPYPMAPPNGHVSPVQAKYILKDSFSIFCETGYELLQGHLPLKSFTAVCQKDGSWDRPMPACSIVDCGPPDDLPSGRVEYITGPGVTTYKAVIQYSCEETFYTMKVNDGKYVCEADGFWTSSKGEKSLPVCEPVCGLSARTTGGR

This test addresses T1, MASP-2 (CCP1-CCP2-SP) (Homo sapiens, UniProt O00187).
T1 construct: 15 μL of Enzyme MASP-2 (CCP1-CCP2-SP) in Assay Buffer
As to the kind of experiment: Enzymatic Assay for MASP-2. Type of test: biochemical. The note with it: fluorogenic substrate based on C2 cleavage site, room temperature, 20 mM HEPES pH 7.4. The method, boiled down:
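Fluorogenic substrate modelled on the C2 cleavage site, run at room temperature in 20 mM HEPES pH 7.4, 140 mM NaCl, 0.1% Tween 20; compounds were added from DMSO serial dilutions before enzyme and substrate. Reactions ran 20 min and were stopped with 0.1 M acetic acid before fluorescence was read. % activity was normalised to DMSO-only and no-enzyme controls; IC50 was taken as Ki, with tight- or slow-binding inhibitors handled separately.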
The compound `O=C(Cn1c(-c2ccccc2)cnc(NCCc2ccc(F)cc2)c1=O)NCc1cc2cnccc2[nH]1` [Compound 146, N-((1H-Pyrrolo[3,2-c]pyridin-2-yl)methyl)-2-(3-((4-fluorophenethyl)amino)-2-oxo-6-phenylpyrazin-1(2H)-yl)acetamide] had a Ki below 500 nM.

`O=C(Cn1c(-c2ccccc2)cnc(NCc2ccc(F)cc2)c1=O)NCc1cc2cnccc2[nH]1` [Compound 147, N-((1H-Pyrrolo[3,2-c]Pyridin-2-yl)Methyl)-2-(3-((4-Fluorobenzyl)Amino)-2-Oxo-6-Phenylpyrazin-1(2H)-yl)Acetamide]: the Ki is below 500 nM.

`CNc1ncc(-c2ccccc2)n(CC(=O)NCc2cc3cnccc3[nH]2)c1=O` [Compound 148, N-((1H-Pyrrolo[3,2-c]pyridin-2-yl)methyl)-2-(3-(methylamino)-2-oxo-6-phenylpyrazin-1(2H)-yl)acetamide] gave an inhibition constant (Ki) below 500 nM.

`O=C(Cn1c(-c2ccccc2)cnc(N2CCC2)c1=O)NCc1cc2cnccc2[nH]1` [Compound 149, N-((1H-Pyrrolo[3,2-c]pyridin-2-yl)methyl)-2-(3-(azetidin-1-yl)-2-oxo-6-phenylpyrazin-1(2H)-yl)acetamide] had a Ki below 500 nM.

Turning to `COc1ccc(CNc2ncc(-c3ccccc3)n(CC(=O)NCc3cc4cnccc4[nH]3)c2=O)cc1` [Compound 150, N-((1H-Pyrrolo[3,2-c]pyridin-2-yl)methyl)-2-(3-((4-methoxybenzyl)amino)-2-oxo-6-phenylpyrazin-1(2H)-yl)acetamide], the Ki was below 500 nM.

As for `O=C(Cn1c(-c2ccccc2)cnc(NCc2cccc(F)c2)c1=O)NCc1cc2cnccc2[nH]1` [Compound 151, N-((1H-Pyrrolo[3,2-c]pyridin-2-yl)methyl)-2-(3-((3-fluorobenzyl)amino)-2-oxo-6-phenylpyrazin-1(2H)-yl)acetamide], the inhibition constant (Ki) was below 500 nM.

Turning to `O=C(Cn1c(-c2ccccc2)cnc(NCc2cccc(C(F)(F)F)c2)c1=O)NCc1cc2cnccc2[nH]1` [Compound 152, N-((1H-Pyrrolo[3,2-c]pyridin-2-yl)methyl)-2-(2-oxo-6-phenyl-3-((3-(trifluoromethyl)benzyl)amino)pyrazin-1(2H)-yl)acetamide], the Ki was below 500 nM.

On to `COc1cccc(CNc2ncc(-c3ccccc3)n(CC(=O)NCc3cc4cnccc4[nH]3)c2=O)c1` [Compound 153, N-((1H-Pyrrolo[3,2-c]pyridin-2-yl)methyl)-2-(3-((3-methoxybenzyl)amino)-2-oxo-6-phenylpyrazin-1(2H)-yl)acetamide], for which the Ki is below 500 nM.

`O=C(Cn1c(-c2ccccc2)cnc(NCc2cc(F)cc(F)c2)c1=O)NCc1cc2cnccc2[nH]1` [Compound 154, N-((1H-Pyrrolo[3,2-c]pyridin-2-yl)methyl)-2-(3-((3,5-difluorobenzyl)amino)-2-oxo-6-phenylpyrazin-1(2H)-yl)acetamide] yielded a Ki below 500 nM.

In turn, `Cc1cccc(CNc2ncc(-c3ccccc3)n(CC(=O)NCc3cc4cnccc4[nH]3)c2=O)c1` [Compound 155, N-((1H-Pyrrolo[3,2-c]pyridin-2-yl)methyl)-2-(3-((3-methylbenzyl)amino)-2-oxo-6-phenylpyrazin-1(2H)-yl)acetamide] gave a Ki below 500 nM.

As for `C[C@H](Nc1ncc(-c2ccccc2)n(CC(=O)NCc2cc3cnccc3[nH]2)c1=O)c1ccccc1` [Compound 156, (S)-N-((1H-Pyrrolo[3,2-c]pyridin-2-yl)methyl)-2-(2-oxo-6-phenyl-3-((1-phenylethyl)amino)pyrazin-1(2H)-yl)acetamide], the Ki is below 500 nM.

For the compound `CC(C)Nc1cnc(N(CCc2ccccc2)CCc2ccccc2)c(=O)n1CC(=O)NCc1cc2cnccc2[nH]1` [Compound 159], the inhibitory constant (Ki) is above 10000 nM.

Regarding `CC(C)Nc1cnc(NCCc2ccccc2)c(=O)n1CC(=O)NCc1cc2cnccc2[nH]1` [Compound 160], the Ki fell in the range of 2500 to 10000 nM.

In turn, `Cn1cc(NCCc2ccccc2)c(=O)n(CC(=O)NCc2cc3cnccc3[nH]2)c1=O` [Compound 161, N-((1H-Pyrrolo[3,2-c]Pyridin-2-yl)Methyl)-2-(3-Methyl-2,6-Dioxo-5-(Phenethylamino)-3,6-Dihydropyrimidin-1(2H)-yl)Acetamide] came in with a Ki below 500 nM.

For the compound `CCCCOc1cnc(NCCc2ccccc2)c(=O)n1CC(=O)NCc1cc2cnccc2[nH]1` [Compound 162, N-((1H-Pyrrolo[3,2-c]Pyridin-2-yl)Methyl)-2-(6-Butoxy-2-Oxo-3-(Phenethylamino)Pyrazin-1(2H)-yl)Acetamide], the Ki was below 500 nM.

Take `COC(=O)[C@H](Cc1ccc(O)cc1)Nc1ncc(-c2ccccc2)n(CC(=O)NCc2cc3cnccc3[nH]2)c1=O` [Compound 163, Methyl (4-(2-(((1H-pyrrolo[3,2-c]pyridin-2-yl)methyl)amino)-2-oxoethyl)-3-oxo-5-phenyl-3,4-dihydropyrazin-2-yl)-L-tyrosinate trifluoroacetate]: the inhibition constant (Ki) is below 500 nM.
